Test [1] has as its target T1, DinF-BH (Halalkalibacterium halodurans (Bacillus halodurans), UniProt Q9KAX3).
T1 sequence (Q9KAX3 1-464): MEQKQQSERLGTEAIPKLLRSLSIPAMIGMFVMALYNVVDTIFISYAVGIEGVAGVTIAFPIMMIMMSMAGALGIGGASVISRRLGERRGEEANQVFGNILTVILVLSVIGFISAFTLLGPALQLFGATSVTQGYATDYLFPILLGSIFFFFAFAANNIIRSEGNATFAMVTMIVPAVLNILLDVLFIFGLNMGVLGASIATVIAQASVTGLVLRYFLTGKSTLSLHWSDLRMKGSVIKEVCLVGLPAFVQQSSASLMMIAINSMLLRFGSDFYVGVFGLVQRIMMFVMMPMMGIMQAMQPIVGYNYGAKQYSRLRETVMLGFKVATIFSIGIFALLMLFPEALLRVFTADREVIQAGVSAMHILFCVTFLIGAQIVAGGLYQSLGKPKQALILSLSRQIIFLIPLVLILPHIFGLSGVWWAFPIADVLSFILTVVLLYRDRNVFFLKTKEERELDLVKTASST
Briefly: biochemical. How it is done:
(§1) [^3H]-R6G (2.7 Ci mmol^−1, 1.0 mCi ml^−1) was custom-synthesized by Moravek Biochemicals (Brea, California, USA). [^3H]-R6G binding assay was performed by using immobilized protein on Ni-NTA beads[31][42] as follows. Briefly, freshly purified protein (DinF-BH or NorM-NG) was mixed gently with pre-equilibrated Ni-NTA beads at 1 mg ml^−1 in buffers containing 20 mM Tris-HCl pH 8, 50 mM NaCl, 20% (v/v) glycerol, 0.02% (w/v) DDM, 1 mM TCEP (binding buffer) for >1 h at 4 °C. The mixture was centrifuged and the unbound material (supernatant) was discarded.
(§2) The beads were thoroughly washed, resuspended and aliquoted in the binding buffer. […] The samples were then transferred into micro-columns and centrifuged; the unbound material (flow-through) was discarded. The protein was eluted by using the binding buffer supplemented with 500 mM Imidazole. The radioactivity of the eluate was measured by liquid scintillation. […] All the experiments were performed in duplicate and repeated three times.

The target in test [2] is NorM-NG (Neisseria gonorrhoeae, UniProt Q5F9J8). The test is described as follows: biochemical. It is filed as binding. How it is done: as §1, §2

Structures are written as SMILES.

The term Ki denotes the dissociation constant of the complex between target and ligand, obtained from inhibition or displacement. The low end stands for higher affinity, the high end for lower affinity. The Kd is the constant that tells how readily two partners part at equilibrium.

NorM-NG, sequence (Q5F9J8 entry or part of it): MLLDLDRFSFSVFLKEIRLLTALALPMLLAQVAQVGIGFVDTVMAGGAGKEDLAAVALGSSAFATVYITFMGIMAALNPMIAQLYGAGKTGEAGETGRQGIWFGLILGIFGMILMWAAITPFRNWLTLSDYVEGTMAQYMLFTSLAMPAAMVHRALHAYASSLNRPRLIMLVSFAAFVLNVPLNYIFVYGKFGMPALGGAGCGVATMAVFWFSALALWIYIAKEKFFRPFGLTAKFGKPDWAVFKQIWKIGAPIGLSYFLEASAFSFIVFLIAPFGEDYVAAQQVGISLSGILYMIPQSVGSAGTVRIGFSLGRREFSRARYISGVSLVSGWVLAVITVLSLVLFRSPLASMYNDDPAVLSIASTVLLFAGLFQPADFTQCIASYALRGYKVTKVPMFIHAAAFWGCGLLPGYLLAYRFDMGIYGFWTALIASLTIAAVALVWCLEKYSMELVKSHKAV

As to `CC[n+]1c(-c2ccccc2)c2cc(N)ccc2c2ccc(N)cc21` [ethidium], the inhibition constant Ki in test [1] and in test [2] was less than 25 µM in each case.
In test [1], `CC/N=c1\cc2oc3cc(NCC)c(C)cc3c(-c3ccccc3C(=O)OCC)c-2cc1C` [R6G, rhodamine 6G] registered a Kd of approximately 5 µM and a Ki of less than 10 µM. In test [2], this compound displayed a dissociation constant Kd of approximately 5 µM and a Ki of less than 10 µM.

The values are drawn from article PMC4866600, “Structural basis for the blockade of MATE multidrug efflux pumps” (Nature Communications, 2015).
